# Read-outs that look alike come from different tables or passages of the source.
# Target: T1, GST-FAK (N-terminal GST fusion with truncated human FAK (376-1052 (end) amino acids)) (Homo sapiens, UniProt Q05397)
# T1 construct: truncated human FAK (376-1052 (end) amino acids)
# Assay: Biochemical enzyme assay for FAK activity (Caliper LC3000 mobility shift)
# Conditions: 100 uM ATP
# Description: 1. Biochemical Enzyme Assays for FAK Activity
# The FAK assays described here are performed on two Caliper Life Sciences systems, the LC3000 and the EZ Reader II. These provide data on enzyme activity via measurement of the relative amounts of phosphorylated or unphosphorylated fluorescently labelled substrate peptide at the end of an enzymatic reaction. These different states of peptide are resolved by applying a potential difference across the sample. The presence of the charged phosphate group on the product (as opposed to the substrate) causes different peptide mobility between the two peptides. This is visualized by excitation of the fluorescent label on the substrate and product peptides and represented as peaks within the analysis software.
# In order to measure inhibitor activity of FAK, inhibitors in the Caliper Life Sciences LC3000, a TTP Mosquito liquid handling instrument is used to place 0.25 ul of the appropriate concentration of inhibitor in 100% DMSO (for a dose response curve calculation) into each well of a 384-well plate. To this reaction components are added to a final volume of 25 ul: • 0.067 ng/ul GST-FAK (N-terminal GST fusion with truncated human FAK (376-1052 (end) amino acids)) • 100 uM ATP • 1 mM DTT • 1 mM MgCl2 • 1 uM substrate peptide (sequence FITC-KGWMEDYDYVHLQGKK-(CONH2)SEQ ID NO: 1)) • 1 mM FERM peptide (sequence NH2-GATQSFIIR-COOH (SEQ ID NO: 2)) • 100 mM HEPES pH 7.5 • 0.015% Brij-35
# The reaction is incubated for 90 min at 25 C, and then stopped by the addition of 70 ul of Stop buffer (100 mM HEPES pH 7.5, 0.015% Brij-35, 10 mM EDTA).
# The plate is read on a Caliper LC 3000 in an Off-Chip mobility shift assay format, using the following parameters for a 12-sipper chip: screening pressure—1.9 psi, upstream voltage—3000, downstream voltage—700. These conditions cause unphosphorylated substrate and phosphorylated product peptide to resolve as separate peaks allowing direct measurement of percentage of conversion of substrate to product. The percent conversion can be plotted against concentration of inhibitor to produce a sigmoid dose response curve, from which an IC50 can be calculated using XLFit for Microsoft Excel.
# T1 sequence (Q05397 376-1052): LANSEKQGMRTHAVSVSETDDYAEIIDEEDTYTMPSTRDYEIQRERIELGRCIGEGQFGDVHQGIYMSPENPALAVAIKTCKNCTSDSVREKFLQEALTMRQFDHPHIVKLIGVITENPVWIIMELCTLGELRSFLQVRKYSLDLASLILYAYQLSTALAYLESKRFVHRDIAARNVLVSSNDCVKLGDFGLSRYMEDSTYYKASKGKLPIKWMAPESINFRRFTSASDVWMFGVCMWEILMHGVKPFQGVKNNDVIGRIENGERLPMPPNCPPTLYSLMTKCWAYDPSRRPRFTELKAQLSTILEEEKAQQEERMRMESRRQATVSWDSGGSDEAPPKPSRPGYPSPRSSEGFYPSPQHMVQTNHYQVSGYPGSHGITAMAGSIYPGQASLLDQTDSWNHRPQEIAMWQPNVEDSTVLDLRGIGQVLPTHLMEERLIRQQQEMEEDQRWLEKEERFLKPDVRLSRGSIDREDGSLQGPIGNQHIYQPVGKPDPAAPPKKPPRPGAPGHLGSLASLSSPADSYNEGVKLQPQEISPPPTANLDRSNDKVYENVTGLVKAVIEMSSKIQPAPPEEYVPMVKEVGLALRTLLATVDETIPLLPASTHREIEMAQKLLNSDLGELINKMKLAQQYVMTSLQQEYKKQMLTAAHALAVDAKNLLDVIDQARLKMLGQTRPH
"IC50 (Table 5, read-out: FAK IC50) [µM]",SMILES,further results
0.1 to 1,"OC[C@H](Nc1ccnc(-c2cncc(C(F)(F)F)c2)n1)c1ccccc1 [Compound 271, (R)-2-Phenyl-2-[2-(5-trifluoromethyl-pyridin-3-yl)-pyrimidin-4-ylamino]-ethanol]",–
< 0.1,"COc1cncc(-c2nccc(NCc3ccc(F)cc3F)n2)c1 [Compound 223, (2,4-Difluoro-benzyl)-[2-(5-methoxy-pyridin-3-yl)-pyrimidin-4-yl]-amine]",–
1 to 10,"N#Cc1cncc(-c2nccc(NCc3ccccn3)n2)c1 [Compound 220, 5-{4-[(Pyridin-2-ylmethyl)-amino]-pyrimidin-2-yl}-nicotinonitrile]",–
> 10,"CNC(=O)C(Nc1ccnc(-c2cncc(C(F)(F)F)c2)n1)c1ccc(O)cc1 (stereo not drawn) [Compound 269, 2-(4-Hydroxy-phenyl)-N-methyl-2-[2-(5-trifluoromethyl-pyridin-3-yl)-pyrimidin-4-ylamino]-acetamide]",–
1 to 10,"Cn1cc(-c2cc(NCc3ccc(F)cc3F)nc(-c3cnn(C)c3)n2)cn1 [Compound 258, [2,6-Bis-(1-methyl-1H-pyrazol-4-yl)-pyrimidin-4-yl]-(2,4-difluoro-benzyl)-amine]",–
> 10,"CS(=O)(=O)Nc1cccc(-c2nc(NCc3ccc(F)cc3F)c3ncn(C4CCCCO4)c3n2)c1 (stereo not drawn) [Compound 242, N-{3-[6-(2,4-Difluoro-benzylamino)-9-(tetrahydro-pyran-2-yl)-9H-purin-2-yl]-phenyl}-methanesulfonamide]",–
0.1 to 1,"Cn1cc(-c2cc(NCc3ccc(F)cc3F)nc(-c3cncc(C(F)(F)F)c3)n2)cn1 [Compound 257, (2,4-Difluoro-benzyl)-[6-(1-methyl-1H-pyrazol-4-yl)-2-(5-trifluoromethyl-pyridin-3-yl)-pyrimidin-4-yl]-amine]",–
0.1 to 1,"FC(F)(F)c1cncc(-c2nccc(NCc3ccccn3)n2)c1 [Compound 219, Pyridin-2-ylmethyl-[2-(5-trifluoromethyl-pyridin-3-yl)-pyrimidin-4-yl]-amine]",–
> 10,"N#Cc1cncc(-c2ncc(C(F)(F)F)c(NCc3ccc(F)cc3F)n2)c1 [Compound 215, 5-[4-(2,4-Difluoro-benzylamino)-5-trifluoromethyl-pyrimidin-2-yl]-nicotinonitrile]",–
1 to 10,"N#Cc1cncc(-c2nccc(NCc3ncccc3F)n2)c1 [Compound 213, 5-{4-[(3-Fluoro-pyridin-2-ylmethyl)-amino]-pyrimidin-2-yl}-nicotinonitrile]",–
> 10,"Cc1cc(F)ncc1-c1nccc(NCc2ccc(F)cc2F)n1 [Compound 211, (2,4-Difluoro-benzyl)-[2-(6-fluoro-4-methyl-pyridin-3-yl)-pyrimidin-4-yl]-amine]",–

# Second part, the compound before the results:
SMILES,"IC50 (Table 5, read-out: FAK IC50) [µM]",further results
"COc1cncc(-c2nccc(NCc3ccc(Cl)cc3F)n2)c1 [Compound 16, (4-Chloro-2-fluoro-benzyl)-[2-(5-methoxy-pyridin-3-yl)-pyrimidin-4-yl]-amine]",–,"IC50 (Table 1, read-out: FAK IC50): 0.1 to 1 µM"
"Cc1cc(F)ncc1-c1nccc(NCc2ccccc2F)n1 [Compound 206, (2-Fluoro-benzyl)-[2-(6-fluoro-4-methyl-pyridin-3-yl)-pyrimidin-4-yl]-amine]",> 10,–
"CS(=O)(=O)n1cc(Nc2ccnc(-c3cncc(C(F)(F)F)c3)n2)cn1 [Compound 182, N-(1-methylsulfonylpyrazol-4-yl)-2-[5-(trifluoromethyl)-3-pyridyl]pyrimidin-4-amine]",–,"IC50 (Table 4, read-out: IC50 FAK): 0.1 to 1 µM"
"COc1ccccc1CCNc1ccnc(-c2cncc(C(F)(F)F)c2)n1 [Compound 201, [2-(2-Methoxy-phenyl)-ethyl]-[2-(5-trifluoromethyl-pyridin-3-yl)-pyrimidin-4-yl]-amine]",1 to 10,–
"Cc1cc(NCc2cccc(C(F)(F)F)c2)nc(-c2cccnc2)n1 [Compound 140, 6-Methyl-2-pyridin-3-yl-N-[3-(trifluoromethyl)benzyl]pyrimidin-4-amine]",–,"IC50 (Table 3, read-out: FAK IC50): > 10 µM"
"Clc1cncc(-c2nccc(NCc3ccc(N4CCOCC4)cc3)n2)c1 [Compound 20, [2-(5-Chloro-pyridin-3-yl)-pyrimidin-4-yl]-(4-morpholin-4-yl-benzyl)-amine]",–,"IC50 (Table 1, read-out: FAK IC50): > 10 µM"
"COc1cncc(-c2nccc(NCCc3ccccc3Cl)n2)c1 [Compound 203, [2-(2-Chloro-phenyl)-ethyl]-[2-(5-methoxy-pyridin-3-yl)-pyrimidin-4-yl]-amine]",1 to 10,–
"COc1cncc(-c2nccc(NCCN3CCCC3=O)n2)c1 [Compound 199, 1-{2-[2-(5-Methoxy-pyridin-3-yl)-pyrimidin-4-ylamino]-ethyl}-pyrrolidin-2-one]",> 10,–
"Fc1cncc(-c2nccc(NCc3cccc(-n4cccn4)c3)n2)c1 [Compound 11, [2-(5-Fluoro-pyridin-3-yl)-pyrimidin-4-yl]-(3-pyrazol-1-yl-benzyl)-amine]",–,"IC50 (Table 1, read-out: FAK IC50): > 10 µM"
"Fc1ccc(Oc2ccc(CNc3ccnc(-c4cncc(Cl)c4)n3)cc2)cc1 [Compound 31, [2-(5-Chloro-pyridin-3-yl)-pyrimidin-4-yl]-[4-(4-fluoro-phenoxy)-benzyl]-amine]",–,"IC50 (Table 1, read-out: FAK IC50): > 10 µM"
"CC(=O)NCCNC(=O)c1cc(NCc2ncccc2F)nc(-c2cncc(C(F)(F)F)c2)n1 [Compound 189, 6-[(3-Fluoro-pyridin-2-ylmethyl)-amino]-2-(5-trifluoromethyl-pyridin-3-yl)-pyrimidine-4-carboxylic acid (2-acetylamino-ethyl)-amide]",0.1 to 1,–
"Cc1cc(NCc2ccccc2)nc(-c2cccnc2)n1 [Compound 141, N-Benzyl-6-methyl-2-pyridin-3-ylpyrimidin-4-amine]",–,"IC50 (Table 3, read-out: FAK IC50): > 10 µM"
"Cc1ccccc1CNc1ccnc(-c2cccnc2N)n1 [Compound 82, 2-(2-Aminopyridin-3-yl)-N-(2-methylbenzyl)pyrimidin-4-amine]",–,"IC50 (Table 3, read-out: FAK IC50): 1 to 10 µM"
"Fc1ccc(-c2nccc(NCc3ccccc3F)n2)cn1 [Compound 207, (2-Fluoro-benzyl)-[2-(6-fluoro-pyridin-3-yl)-pyrimidin-4-yl]-amine]",> 10,–
"CN(C)c1ccccc1CNc1ccnc(-c2cccnc2N)n1 [Compound 91, 2-(2-Aminopyridin-3-yl)-N-[2-(dimethylamino)benzyl]pyrimidin-4-amine]",–,"IC50 (Table 3, read-out: FAK IC50): 1 to 10 µM"
"COc1cncc(-c2nccc(NCCc3cccc(C(F)(F)F)c3)n2)c1 [Compound 194, [2-(5-Methoxy-pyridin-3-yl)-pyrimidin-4-yl]-[2-(3-trifluoromethyl-phenyl)-ethyl]-amine]",> 10,–
"CN1CCCC1CCNc1ccnc(-c2cncc(C(F)(F)F)c2)n1 (stereo not drawn) [Compound 197, [2-(1-Methyl-pyrrolidin-2-yl)-ethyl]-[2-(5-trifluoromethyl-pyridin-3-yl)-pyrimidin-4-yl]-amine]",> 10,–
"Cc1cccc(CNc2ccnc(-c3cccnc3N)n2)c1 [Compound 95, 2-(2-Aminopyridin-3-yl)-N-(3-methylbenzyl)pyrimidin-4-amine]",–,"IC50 (Table 3, read-out: FAK IC50): > 10 µM"
"NC(=O)CCNc1cc(NCc2ccc(F)cc2F)nc(-c2cncc(C(F)(F)F)c2)n1 [Compound 61, 3-[6-(2,4-Difluoro-benzylamino)-2-(5-trifluoromethyl-pyridin-3-yl)-pyrimidin-4-ylamino]-propionamide]",–,"IC50 (Table 2, read-out: FAK IC50): 0.1 to 1 µM"
"Clc1cncc(-c2nccc(NCC3CC3)n2)c1 [Compound 36, [2-(5-Chloro-pyridin-3-yl)-pyrimidin-4-yl]-cyclopropylmethyl-amine]",–,"IC50 (Table 1, read-out: FAK IC50): 1 to 10 µM"
"Nc1ncccc1-c1nccc(NCc2ccccc2Cl)n1 [Compound 86, 2-(2-Aminopyridin-3-yl)-N-(2-chlorobenzyl)pyrimidin-4-amine]",–,"IC50 (Table 3, read-out: FAK IC50): 0.1 to 1 µM"
"Nc1ncccc1-c1nccc(NCc2cccnc2C(F)(F)F)n1 [Compound 137, 2-(2-Aminopyridin-3-yl)-N-{[2-(trifluoromethyl)pyridin-3-yl]methyl}pyrimidin-4-amine]",–,"IC50 (Table 3, read-out: FAK IC50): 1 to 10 µM"
"O=C(c1cncc(-c2nccc(NCc3ccc(N4CCOCC4)cc3)n2)c1)N1CCOCC1 [Compound 14, Morpholin-4-yl-{5-[4-(4-morpholin-4-yl-benzylamino)-pyrimidin-2-yl]-pyridin-3-yl}-methanone]",–,"IC50 (Table 1, read-out: FAK IC50): > 10 µM"
"FC(F)(F)c1cncc(-c2nccc(NCc3ccc4c(c3)OCCO4)n2)c1 [Compound 30, (2,3-Dihydro-benzo[1,4]dioxin-6-ylmethyl)-[2-(5-trifluoromethyl-pyridin-3-yl)-pyrimidin-4-yl]-amine]",–,"IC50 (Table 1, read-out: FAK IC50): > 10 µM"
"Nc1ncccc1-c1nccc(NCc2cc(F)ccc2C(F)(F)F)n1 [Compound 102, 2-(2-Aminopyridin-3-yl)-N-[5-fluoro-2-(trifluoromethyl)benzyl]pyrimidin-4-amine]",–,"IC50 (Table 3, read-out: FAK IC50): 1 to 10 µM"

# Source: patent US9199962B2, “Substituted azaheterocycles for the treatment of cancer” (Merck Patent GmbH, priority 2011, dated 2015)
